Laboratory results from patent publication US20070299129A1, “Compounds and derivatives for the treatment of medical conditions by modulating hormone-sensitive lipase activity” (DEVIRIS INC., priority 2006, published 2007).
Where “and” joins values, the source holds several entries; their conditions need not be identical. Equal entries are not always repeated.

Experiments:
COX-2 = target: T1, COX-2 (Homo sapiens, UniProt P35354); conditions: Smith et al., Organic Letters, 7:5075-5078, 2005; cited from earlier work
T1 sequence (P35354 18-604): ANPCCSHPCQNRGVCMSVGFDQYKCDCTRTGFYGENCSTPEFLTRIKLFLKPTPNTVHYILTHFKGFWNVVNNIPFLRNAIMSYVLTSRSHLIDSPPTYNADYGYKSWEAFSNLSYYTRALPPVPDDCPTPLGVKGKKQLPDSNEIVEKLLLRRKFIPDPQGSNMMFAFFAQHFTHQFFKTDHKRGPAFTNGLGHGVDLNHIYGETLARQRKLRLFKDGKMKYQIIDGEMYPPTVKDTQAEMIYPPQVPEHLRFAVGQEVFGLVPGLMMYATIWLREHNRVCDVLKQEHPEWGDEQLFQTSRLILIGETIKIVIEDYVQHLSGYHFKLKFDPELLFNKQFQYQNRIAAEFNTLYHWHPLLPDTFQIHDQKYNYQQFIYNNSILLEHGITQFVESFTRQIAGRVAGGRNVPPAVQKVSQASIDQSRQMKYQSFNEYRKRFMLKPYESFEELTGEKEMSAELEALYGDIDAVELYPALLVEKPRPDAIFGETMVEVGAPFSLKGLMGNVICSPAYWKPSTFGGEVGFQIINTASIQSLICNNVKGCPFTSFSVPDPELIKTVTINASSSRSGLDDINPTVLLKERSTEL

[1] = target: T2, recombinant His-HSL (hormone-sensitive lipase) (Rattus norvegicus, UniProt P15304); experiment: Assay for potency of inhibition on HSL activity (neutral cholesteryl ester hydrolase activity, cholesteryl [1-14C]oleate), Example 1; assay type: biochemical; conditions: for % inhibition of HSL: in the presence of DTT (1 mM), inhibitor range 0-2.4 mg/mL (FIG. 1, Table 1); for HSL Activity (DPM) (average): HSL + DTT (1 mM), control without inhibitor 1585.64 DPM
T2 construct: cloning full-length rat HSL cDNA into the SmaI site of pAcHLT-A; His6 (N); made in house; host or cells: Sf21 insect cells (baculovirus, BaculoGold)
T2 sequence (P15304 1-768 isoform P15304-2): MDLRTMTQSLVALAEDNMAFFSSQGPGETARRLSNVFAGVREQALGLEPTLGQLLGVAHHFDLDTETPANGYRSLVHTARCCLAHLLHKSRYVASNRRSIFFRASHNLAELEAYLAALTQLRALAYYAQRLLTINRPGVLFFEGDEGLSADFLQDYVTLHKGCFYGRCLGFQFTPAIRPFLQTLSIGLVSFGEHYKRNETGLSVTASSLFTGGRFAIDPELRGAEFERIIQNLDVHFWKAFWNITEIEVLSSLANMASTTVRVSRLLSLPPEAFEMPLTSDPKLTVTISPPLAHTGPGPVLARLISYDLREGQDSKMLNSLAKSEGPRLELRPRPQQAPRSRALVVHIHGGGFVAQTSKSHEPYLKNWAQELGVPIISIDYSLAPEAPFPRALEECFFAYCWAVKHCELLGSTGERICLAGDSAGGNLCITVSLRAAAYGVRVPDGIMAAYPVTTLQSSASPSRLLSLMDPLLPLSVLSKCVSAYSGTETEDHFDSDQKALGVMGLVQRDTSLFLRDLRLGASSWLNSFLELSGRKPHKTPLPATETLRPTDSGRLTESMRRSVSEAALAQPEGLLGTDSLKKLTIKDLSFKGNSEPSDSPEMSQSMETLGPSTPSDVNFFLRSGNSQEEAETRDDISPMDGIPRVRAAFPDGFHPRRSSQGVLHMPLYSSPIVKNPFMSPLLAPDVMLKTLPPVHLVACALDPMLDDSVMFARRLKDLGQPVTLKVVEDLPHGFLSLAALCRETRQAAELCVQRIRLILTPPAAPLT
Description: Production of Recombinant HSL: Recombinant His-HSL was generated by cloning full-length rat HSL cDNA into the SmaI site of pAcHLT-A containing a His6 tag. pAcHLT-A-HSL (5 μg) was co-transfected into Sf21 cells with 0.5 μg of BaculoGold™ DNA using the transfection kit from the manufacturer. The titer of the recombinant virus was determined using an end point dilution assay, and the virus was re-amplified to a final titer of 1.5×10^7 pfu/ml. To produce recombinant proteins, Sf21 cells were grown in 150 mm Petri dishes and each 2×10^7 cells were infected with 100 μl of the high titer recombinant virus; cells were harvested three days after infection. After harvesting and cell extraction, His-HSL was purified on a Ni-agarose column.
Preparation of Substrate for Neutral Cholesteryl Ester Hydrolase Activity Assay: HSL activity was determined as neutral cholesteryl ester hydrolase activity using a cholesteryl[1-14C]oleate emulsion for measurement of cellular activity, as described previously. Substrate for the cholesteryl ester assay was prepared by adding 1.25 μCi cholesteryl [1-14C]oleate (purified by thin-layer chromatography), 0.043 mmol phosphatidylcholine, and 0.011 mmol cholesteryl oleate into 2.5 mL of 100 mM potassium phosphate buffer (pH 7.0) containing 5 mM sodium taurocholate. The substrate solution was vortexed and then sonicated for 3 hours with a Branson Sonifier/Cell Disruptor model W-350 on an output setting of 5.0 (50%). The substrate was centrifuged at 3000 rpm for 15 min to remove metallic fragments released by the probe and stored under nitrogen at 4° C. for up to one week.
Preparation of Inhibitor Stock Solution: Inhibitors (fraction # O-4355, O-4350, O-4361, O-4456, O-4457) were obtained from olives, olive oil, roots, bark and leaves from olea europeae species as previously described (Paiva-Martins et al., J. Agric. Food Chem., 49:4214-4219, 2001) and dissolved in 200 μL DMSO with 800 μL distilled water at a concentration of 10 mg/ml. This was regarded as stock solution. 0-60 μL of the stock solution were added to the HSL assay to achieve a final concentration of 0-2.4 mg/ml of the inhibitors. The same volume of DMSO without inhibitors was performed as a control.
Assay for Potency of Inhibition on HSL Activity by the Inhibitors: Aliquots of recombinant HSL protein and various concentrations of inhibitors (0-2.4 mg/mL final concentration) were mixed and the volume adjusted to 100 μL and mixed with 140 μL 0.05% bovine serum albumin in 100 mM potassium phosphate, pH 7.0. After the addition of 10 μL of substrate (100 μM final concentration), the assay was carried out at 37° C. for 60 min. The reaction was stopped by the addition of chloroform:methanol:heptane (250:230:180). After the addition of borate/carbonate buffer (0.1 M, pH, 10.5), the tubes were vortexed and centrifuged, and aliquots of the upper phase were taken for liquid scintillation counting in a Beckman scintillation counter.

Row | % inhibition of HSL [1] | HSL Activity (DPM) (average) ([1]; inhibitor 0.4 mg/mL) | HSL Activity (DPM) (average) ([1]; inhibitor 0.8 mg/mL) | HSL Activity (DPM) (average) ([1]; inhibitor 1.2 mg/mL) | HSL Activity (DPM) (average) ([1]; inhibitor 1.6 mg/mL) | HSL Activity (DPM) (average) ([1]; inhibitor 2.0 mg/mL) | HSL Activity (DPM) (average) ([1]; inhibitor 2.4 mg/mL) | Structure (SMILES) | anti-COX-2 activity (COX-2)
1 | 98% and 98.42% | 123.5 | 52.6035 | 51.145 | 88.595 | 49.56 | 25.035 | C/C=C(/C=O)[C@@H](CC=O)CC(=O)OCCc1ccc(O)cc1 [O-4456, para-hydroxyphenylelenolic acid dialdehyde] | having anti-COX-2 activity
2 | 97% and 97.95% | 214.85 | 87.105 | 48.025 | 49.885 | 39.545 | 32.495 | CC=C(C=O)C(CC=O)CC(=O)OCCc1ccc(O)c(O)c1 (stereo not drawn) [O-4457, 3,4-dihydroxyphenylelenolic acid dialdehyde] | 
